In article PMC11435625, “In Vitro Hepatic Clearance Evaluations of Per- and Polyfluoroalkyl Substances (PFAS) across Multiple Structural Categories” (Toxics, 2024):

Key:
[1] = test system: pooled primary human hepatocyte suspensions; assay: Hepatic clearance assay (substrate depletion, LC-MS); conditions: in µL/min/10^6 cells; for CLint for HTTK: CLint value carried into HTTK/IVIVE; for in vitro CLint exp assay / Unadj Clint: pooled primary human hepatocyte suspensions; for Unadj Clint: unadjusted hepatic intrinsic clearance, Table S4
How it was run: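 Substrate depletion at 1 μM PFAS in pooled cryopreserved human hepatocytes (~0.5 × 10^6 viable cells/mL, 50-donor pool), 37 °C with shaking, sampled 0–240 min in triplicate. Quantified by LC-MS in negative ion mode against matrix-matched calibration; media-only or heat-inactivated cells as nonmetabolic-loss controls.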

[2] = IVIVE: steady-state concentration (Css), generic HTTK model; set-up: species or system human; conditions: for Css (mg/L) / Css (uM): Assuming 1 mg/kg/day dose rate, BW 70 kg; for CLhep: QL 1500000 uL/min; for Fub: fub=fup/(B:P), Fub set to 1 if needed; for CLint: scaled to whole liver: HPGL 110 mill cells/g, Vl 1596 g
How it was run: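 Human Css estimated by IVIVE: plasma protein binding converted to blood fraction unbound via blood-to-plasma partitioning, and experimental Clint scaled with liver scalars to whole liver clearance. AEDs then derived by reverse dosimetry from Css and PFAS in vitro POD, defined as fifth-percentile AC50.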

[3] = test system: plasma protein; conditions: fraction unbound in plasma, input for IVIVE calculations; cited from earlier work
[4] = test system: pooled primary human hepatocyte suspensions; assay: Bayesian (MCMC, invitroTKstats) analysis of hepatic clearance data; conditions: Level-4 Bayesian estimate, posterior median; Clint.1 series (Clint.10 all NA)

Compound | CLint for HTTK [1] | in vitro CLint exp assay [1] | Css (mg/L) [2] | Css (uM) [2] | CLhep [2] | Fub [2] | CLint [2] | Mean fu [3] | Clint.1.Med [4] | Unadj Clint [1]
O=C(O)CCC(F)(F)C(F)(F)C(F)(F)C(F)(F)C(F)(F)F | 11.84 | 11.84 | 2.11 mg/L | 6.18 µM | 1.318 L/h | 0.01073 | 2078630 µL/min | 0.0059 | 19 | –
O=S(=O)(O)CCC(F)(F)C(F)(F)C(F)(F)C(F)(F)C(F)(F)C(F)(F)F | 1.4 | 1.4 | 5.29 mg/L | 12.36 µM | 0.382 L/h | 0.026 | 245784 µL/min | 0.0143 | 0 | –
O=P(O)(O)CCC(F)(F)C(F)(F)C(F)(F)C(F)(F)C(F)(F)C(F)(F)F [2-(Perfluorohexyl)ethylphosphonic acid] | 0 | 0 | 19.62 mg/L | 45.85 µM | 0.000 L/h | 0.02236 | 0 µL/min | 0.0123 | 0 | 0.71
O=C(O)C(F)(F)C(F)(F)C(F)(F)C(F)(F)C(F)(F)C(F)(F)C(F)(F)C(F)F [9-H-Perfluorononanoic acid (9H-PFNA)] | 0 | 0 | 268.16 mg/L | 601.28 µM | 0.000 L/h | 0.001636 | 0 µL/min | 0.0009 | 0 | –
O=S(=O)(O)C(F)(F)C(F)(F)OC(F)(F)C(F)(F)F [Perfluoro(2-ethoxyethane)sulfonic acid] | 5.51 | 5.51 | 16.68 mg/L | 52.79 µM | 0.158 L/h | 0.002727 | 967336 µL/min | 0.0015 | 266 | 5.51
O=C(O)C(F)(F)OC(F)(F)C(F)(F)OC(F)(F)C(F)(F)OC(F)(F)F [Perfluoro-3,6,9-trioxadecanoic acid] | 0 | 0 | 804.48 mg/L | 1952.80 µM | 0.000 L/h | 0.0005455 | 0 µL/min | 0.0003 | 0 | 0.00
O=C(O)C(F)(F)OC(F)(F)C(F)(F)OC(F)(F)C(F)(F)C(F)(F)C(F)(F)F [Perfluoro-3,6-dioxadecanoic acid] | 0 | 0 | 344.78 mg/L | 773.10 µM | 0.000 L/h | 0.001273 | 0 µL/min | 0.0007 | 0 | 0.00
O=S(=O)(O)C(F)(F)C(F)(F)C(F)(F)C(F)(F)F [Perfluorobutanesulfonic acid (PFBS)] | 4.75 | 4.75 | 2.25 mg/L | 7.51 µM | 1.150 L/h | 0.02327 | 833910 µL/min | 0.0128 | 0 | –
O=C(O)C(F)(F)C(F)(F)C(F)(F)F [Perfluorobutanoic acid (PFBA)] | 0 | 0 | 2.60 mg/L | 12.13 µM | 0.000 L/h | 0.1691 | 0 µL/min | 0.093 | 0 | –
